Test results published in paper PMC10746112, “Synthesis and Pro-Apoptotic Effects of Nitrovinylanthracenes and Related Compounds in Chronic Lymphocytic Leukaemia (CLL) and Burkitt’s Lymphoma (BL)” (Molecules, 2023).
pIC50: −log10 of the molar value. Values joined by “and” are separate entries in the source; they are usually repeats but may differ in a detail not shown here. Equal values may be shown once. Read-outs that look alike come from different tables or passages of the source.

Key:
[1] = tested on: MUTU-I Burkitt’s lymphoma cell line; conditions: human, 24 h, 10 µM
[2] = tested on: MUTU-I Burkitt’s lymphoma cell line; experiment: alamarBlue cell viability assay; conditions: 24 h; for viability at 1 µM / viability at 10 µM: MUTU-I
[3] = tested on: DG-75 Burkitt’s lymphoma cell line; experiment: alamarBlue cell viability assay; conditions: for viability at 1 µM / viability at 10 µM: Homo sapiens, DG-75, 48 h; for % Viable Cells Remaining DG-75: 48 h
HG-3 CLL cell line = experiment: alamarBlue cell viability assay; conditions: 24 h; for viability at 10 µM: read-out: % Viability HG-3, 10 µM, 24 h
PGA-1 CLL cell line = experiment: alamarBlue cell viability assay; conditions: 24 h; for % Viability PGA-1: 10 µM
[4] = tested on: DG-75 Burkitt’s lymphoma cell line; conditions: human, 48 h, 10 µM
[5] = tested on: MUTU-I Burkitt’s lymphoma cell line; conditions: cited from earlier work; for pIC50: read-out: IC50 MUTU-I, previous work
[6] = tested on: DG-75 Burkitt’s lymphoma cell line; conditions: read-out: IC50 DG-75; previous work; cited from earlier work
[7] = read-out: % Viable Cells Remaining MUTU-1, 1 µM, 24 h
[8] = read-out: % Viable Cells Remaining MUTU-1, 10 µM, 24 h
[9] = read-out: % Viable Cells Remaining DG-75, 1 µM, 48 h
[10] = read-out: % Viable Cells Remaining DG-75, 10 µM, 48 h
[11] = read-out: % Viable Cells Remaining MUTU-1
[12] = CLL cell, read-out: % Viability PGA-1, 10 µM, 24 h
[13] = read-out: % Viable Cells Remaining DG-75

| Compound | viability at 1 µM [2, 7] | viability at 10 µM [2, 8] | viability at 1 µM [3, 9] | viability at 10 µM [3, 10] | further results |
| --- | --- | --- | --- | --- | --- |
| C/C(=C\c1c2ccccc2c(Cl)c2ccccc12)[N+](=O)[O-] [Compound 19e] | 105% | 98.6% | 82.5% | 99.6% | % Viable Cells Remaining MUTU-1 [1]: 98.6%; viability at 10 µM (HG-3 CLL cell line; CLL cell): 87% |
| O=[N+]([O-])/C=C/c1cc2ccccc2c2ccccc12 [Compound 21, (E)-9-(2-Nitrovinyl)phenanthrene] |  |  | 99.5% | 60% | viability at 1 µM [2, 11]: 73.6%; viability at 10 µM [2, 11]: 1.68%; % Viable Cells Remaining DG-75 ([3]; 10 µM): 62.2%; viability at 10 µM (HG-3 CLL cell line; CLL cell): 29%; viability at 10 µM (PGA-1 CLL cell line; [12]): 11.8% |
| CC/C(=C\c1c2ccccc2cc2ccccc12)[N+](=O)[O-] [Compound 19c] | 88.6% | 78% | 83.8% | 92.3% | viability at 10 µM (HG-3 CLL cell line; CLL cell): 72%; viability at 10 µM (PGA-1 CLL cell line; [12]): 66% |
| CC/C(=C\c1c2ccccc2c(Cl)c2ccccc12)[N+](=O)[O-] [Compound 19f, (E)-9-chloro-10-(2-nitrobut-1-en-1-yl)anthracene] | 96.6% | 97.5% | 105% | 78% | % Viable Cells Remaining MUTU-1 [1]: 97.5% |
| ClCc1c2ccccc2cc2ccccc12 [Compound 27, 9-(chloromethyl)anthracene] | 102% | 93.8% | 79% | 85.5% | % Viable Cells Remaining MUTU-1 [1]: 93.8% |
| N#CCc1c2ccccc2cc2ccccc12 [Compound 28, 2-(anthracen-9-yl)acetonitrile] | 95.2% | 88.8% | 93.8% | 85.2% |  |
| N/N=C/c1c2ccccc2c(Cl)c2ccccc12 [Compound 32b] | 105% | 82.5% | 94.8% | 100% |  |
| c1ccc2c(CN3CCCC3)c3ccccc3cc2c1 [Compound 29b] | 108% | 106% | 93.2% | 97.2% |  |
| O=[N+]([O-])/C=C/c1c2ccccc2c(Br)c2ccccc12 [Compound 19h, (E)-9-Bromo-10-(2-Nitrovinyl)Anthracene] | 51.2% | 3.36% | 84.8% | 70% | melting point: 227 to 230 °C; viability at 10 µM (PGA-1 CLL cell line; [12]): 36.9% |
| O=[N+]([O-])C=CCc1c2ccccc2cc2ccccc12 [Compound 20a, 9-(3-Nitroallyl)Anthracene] | 106% |  | 99.9% | 79 to 97% | % Viable Cells Remaining DG-75 [4]: 79.71%; viability at 10 µM (PGA-1 CLL cell line; [12]): > 50% |
| CC(=O)/C=C/c1c2ccccc2cc2ccccc12 [Compound 25] | 107% | > 90% | 96.3% | > 90% | % Viable Cells Remaining MUTU-1 [1]: 103.2%; % Viable Cells Remaining DG-75 [4]: 100.5% |
| COc1ccc2c(c1)OC(c1ccccc1)C([N+](=O)[O-])=C2 (centres unmarked) [Compound 10b, reference compound] |  |  |  |  | pIC50 [5]: 6.33; pIC50 [6]: 5.72 |
| O=[N+]([O-])/C=C/c1c2cccc(Cl)c2cc2c(Cl)cccc12 [Compound 19k, (E)-1,8-Dichloro-10-(2-Nitrovinyl)Anthracene] | 71% | -0.18% | 88.7% | 0.15% |  |
| CN(C)C(=O)c1c2ccccc2cc2ccccc12 [Compound 33b] | 91.4% | 90.1% | 96.2% | 75% | melting point: 150 to 152 °C; % Viable Cells Remaining MUTU-1 [1]: 90.1% |
| c1ccc2c(CN3CCCCCC3)c3ccccc3cc2c1 [Compound 29a] | 103% | 99% | 83.6% | 89.3% |  |
| O=C(c1c2ccccc2cc2ccccc12)N1CCOCC1 [Compound 33e] | 86.9% | 85.2% | 86.1% | 80.2% |  |
| N#CC(C#N)=Cc1c2ccccc2cc2ccccc12 [Compound 23a] |  |  |  |  | viability at 1 µM [2, 11]: 91.9%; viability at 10 µM [2, 11]: 65.3%; viability at 1 µM [3, 13]: 104%; viability at 10 µM [3, 13]: 98.1%; viability at 10 µM (PGA-1 CLL cell line; CLL cell, read-out: % Viability PGA-1): > 50% |
| O=C(c1c2ccccc2cc2ccccc12)N1CCCCC1 [Compound 33f] | 83.1% | 84.8% | 72.5% | 78.8% | melting point: 181 to 183 °C; % Viable Cells Remaining MUTU-1 [1]: 84.8% |

| Compound | viability at 1 µM [2, 7] | viability at 10 µM [2, 8] | viability at 1 µM [3, 9] | viability at 10 µM [3, 10] | further results |
| --- | --- | --- | --- | --- | --- |
| O=[N+]([O-])/C=C/c1c2ccccc2c(Cl)c2ccccc12 [Compound 19d] | 70.8% | 7.6% | 75.1% | 57.1% | % Viable Cells Remaining MUTU-1 [1]: 7.61%; viability at 10 µM (HG-3 CLL cell line; CLL cell): 97%; viability at 10 µM (PGA-1 CLL cell line; [12]): 51.8% |
| O/N=C/Cc1c2ccccc2cc2ccccc12 [Compound 32e] | 103% | 94.9% | 102% | 93% |  |
| CCN(CC)C(=O)c1c2ccccc2cc2ccccc12 [Compound 33a] | 105% | 103% | 90.1% | 90.5% |  |
| C/C(=C\c1ccc(F)cc1)[N+](=O)[O-] [Compound 11c] |  |  |  |  | % Viable Cells Remaining MUTU-1 24 h 10 µM ([5]; nitrostyrenes, 10 µM, 24 h): 19.06%; viability at 10 µM (HG-3 CLL cell line; CLL cell): 8.76%; viability at 10 µM (PGA-1 CLL cell line; [12]): 3.7% |
| N#CC(C#N)=Cc1c2ccccc2c(Cl)c2ccccc12 [Compound 23b, 2-((10-Chloroanthracen-9-yl)Methylene)Malononitrile] |  |  |  |  | melting point: 196 to 198 °C; % Viable Cells Remaining MUTU-1 ([2]; 1 µM): 92.59%; % Viable Cells Remaining MUTU-1 ([2]; 10 µM): ~ 20% and 16.78%; % Viable Cells Remaining DG-75 ([3]; 1 µM): 85.59%; % Viable Cells Remaining DG-75 ([3]; 10 µM): ~ 55% and 52.84%; % Viability PGA-1 (PGA-1 CLL cell line): > 50% |
| O/N=C/c1c2ccccc2cc2ccccc12 [Compound 32c] | 99.2% | 92.7% | 92.5% | 101% |  |
| N#C/C=C/c1c2ccccc2cc2ccccc12 [Compound 23c] | 88.1% | 86.9% | 84.2% | 82% |  |
| CNCCCC12CCC(c3ccccc31)c1ccccc12 [Maprotiline, maprotiline, reference compound] | 93.1% | 72% | 102% | 65% |  |
| OCc1c2ccccc2cc2ccccc12 [Compound 26, anthracen-9-ylmethanol] | 106% | 94.9% | 102% | 93% |  |
| O=[N+]([O-])/C(=C/c1ccc(Cl)cc1)Cc1ccc(Cl)cc1 [Compound 10c, reference compound] |  |  |  |  | pIC50 [5]: 5.53; pIC50 [6]: 5.19 |
| N/N=C/c1c2ccccc2cc2ccccc12 [Compound 32a] | 97.5% | 95.5% | 104% | 102% |  |
| O=[N+]([O-])/C=C/c1c2ccccc2c(-c2ccccc2)c2ccccc12 [Compound 19j, (E)-9-(2-Nitrovinyl)-10-Phenylanthracene] | 68.5% | 1.29% | 83.5% | 1.5% |  |
| C/C(=C\c1c2ccccc2cc2ccccc12)[N+](=O)[O-] [Compound 19b, (E)-9-(2-nitroprop-1-en-1-yl)anthracene] | 99.8% | 88.2% | 102% | 89.3% | viability at 10 µM (HG-3 CLL cell line; CLL cell): 82%; viability at 10 µM (PGA-1 CLL cell line; [12]): 81% |
| O=C(c1c2ccccc2cc2ccccc12)N1CCCCCC1 [Compound 33c, Anthracen-9-yl(Azepan-1-yl)Methanone] | 86.8% | 77.4% | 69.6% | 71.6% | melting point: 134 to 137 °C; % Viable Cells Remaining MUTU-1 [1]: 77.4% |
| CC/C(=C\c1cc(Br)ccc1OC)[N+](=O)[O-] [Compound 10a, (E)-4-bromo-1-methoxy-2-(2-nitrobut-1-en-1-yl)benzene, reference compound] |  |  |  |  | pIC50 [5]: 6.35; pIC50 [6]: 5.85; viability at 1 µM (PGA-1 CLL cell line; CLL cell, read-out: % Viability PGA-1, 1 µM, 24 h): 96.4%; viability at 10 µM (PGA-1 CLL cell line; [12]): 0.97% |
| O=C(c1c2ccccc2cc2ccccc12)N1CCCC1 [Compound 33d] | 91.6% | 95.6% | 69.4% | 67.1% | melting point: 149 to 151 °C; % Viable Cells Remaining MUTU-1 [1]: 95.6% |
| CC/C(=C\c1ccccc1F)[N+](=O)[O-] [Compound 11d] |  |  |  |  | % Viability HG-3 (HG-3 CLL cell line; 10 µM): 0.66%; viability at 1 µM (HG-3 CLL cell line; CLL cell, read-out: % Viability HG-3, 1 µM, 24 h): 14.5%; % Viability PGA-1 (PGA-1 CLL cell line): 0.02% |
